Results: publication PMC10174618, “Monoterpenoid aryl hydrocarbon receptor allosteric antagonists protect against ultraviolet skin damage in female mice” (Nature Communications, 2023)

What was measured:
Assay in all cases: biochemical
Set-up in all cases: KINOMEscan scanMAX active site-directed competition binding assay, percent of control, 468 kinases
Settings in all cases: competition binding, percent of control
BRAF = BRAF (Homo sapiens, UniProt P15056)
Outline: (§1)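 KINOMEscan active site-directed competition binding assay against 468 human kinases with 100 μM S-carvone. Binding expressed as % of control, with 35% of control as the inhibition threshold.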

BTK = BTK (Homo sapiens, UniProt Q06187)
Outline: as §1

CDK8 = CDK8 (Homo sapiens, UniProt P49336)
Outline: as §1

CSNK1A1L = CSNK1A1L (Homo sapiens, UniProt Q8N752)
Outline: as §1

DCAMKL1 = biological target: T1, DCAMKL1 (Homo sapiens, UniProt O15075)
T1 construct: gene DCLK1
Outline: as §1

ERK8 = biological target: T2, ERK8 (Homo sapiens, UniProt Q8TD08)
T2 construct: gene MAPK15
T2 sequence (Q8TD08 whole entry): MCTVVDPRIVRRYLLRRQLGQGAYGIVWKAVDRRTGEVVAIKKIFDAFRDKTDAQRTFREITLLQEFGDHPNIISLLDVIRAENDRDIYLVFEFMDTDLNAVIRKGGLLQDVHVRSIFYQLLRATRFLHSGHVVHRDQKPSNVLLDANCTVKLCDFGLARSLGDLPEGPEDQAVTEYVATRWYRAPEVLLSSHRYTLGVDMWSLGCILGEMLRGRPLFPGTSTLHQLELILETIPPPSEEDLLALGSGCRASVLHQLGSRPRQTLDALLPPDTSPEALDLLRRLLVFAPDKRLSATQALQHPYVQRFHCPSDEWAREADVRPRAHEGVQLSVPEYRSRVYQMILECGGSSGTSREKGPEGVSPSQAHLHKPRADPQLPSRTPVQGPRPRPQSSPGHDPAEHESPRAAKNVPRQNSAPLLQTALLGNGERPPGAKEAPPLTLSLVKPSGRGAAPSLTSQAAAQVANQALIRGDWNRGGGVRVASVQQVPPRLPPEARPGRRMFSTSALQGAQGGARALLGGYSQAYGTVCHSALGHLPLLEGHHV
Outline: as §1

GRK1 = GRK1 (Homo sapiens, UniProt Q15835)
Outline: as §1

GRK2 = GRK2 (Homo sapiens, UniProt P25098)
GRK2, sequence (P25098 whole entry): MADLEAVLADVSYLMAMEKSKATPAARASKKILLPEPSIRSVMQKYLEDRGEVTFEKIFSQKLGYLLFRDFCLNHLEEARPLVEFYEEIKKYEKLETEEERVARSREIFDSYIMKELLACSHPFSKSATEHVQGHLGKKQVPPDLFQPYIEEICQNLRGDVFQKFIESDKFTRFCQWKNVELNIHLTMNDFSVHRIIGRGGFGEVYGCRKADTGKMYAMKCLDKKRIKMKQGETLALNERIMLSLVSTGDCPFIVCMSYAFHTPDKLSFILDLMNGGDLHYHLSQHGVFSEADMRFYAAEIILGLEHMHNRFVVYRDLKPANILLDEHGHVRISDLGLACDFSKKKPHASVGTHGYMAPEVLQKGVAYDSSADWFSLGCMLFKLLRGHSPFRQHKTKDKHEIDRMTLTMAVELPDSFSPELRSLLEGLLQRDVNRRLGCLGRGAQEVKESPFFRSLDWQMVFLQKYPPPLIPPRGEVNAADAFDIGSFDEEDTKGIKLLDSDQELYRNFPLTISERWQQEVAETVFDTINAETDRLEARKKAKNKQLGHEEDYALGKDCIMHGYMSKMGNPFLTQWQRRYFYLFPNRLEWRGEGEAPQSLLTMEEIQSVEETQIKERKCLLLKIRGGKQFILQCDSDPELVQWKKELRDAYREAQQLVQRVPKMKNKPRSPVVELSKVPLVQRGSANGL
Outline: as §1

HIPK2 = HIPK2 (Homo sapiens, UniProt Q9H2X6)
Outline: as §1

IRAK4 = IRAK4 (Homo sapiens, UniProt Q9NWZ3)
IRAK4, sequence (Q9NWZ3 whole entry): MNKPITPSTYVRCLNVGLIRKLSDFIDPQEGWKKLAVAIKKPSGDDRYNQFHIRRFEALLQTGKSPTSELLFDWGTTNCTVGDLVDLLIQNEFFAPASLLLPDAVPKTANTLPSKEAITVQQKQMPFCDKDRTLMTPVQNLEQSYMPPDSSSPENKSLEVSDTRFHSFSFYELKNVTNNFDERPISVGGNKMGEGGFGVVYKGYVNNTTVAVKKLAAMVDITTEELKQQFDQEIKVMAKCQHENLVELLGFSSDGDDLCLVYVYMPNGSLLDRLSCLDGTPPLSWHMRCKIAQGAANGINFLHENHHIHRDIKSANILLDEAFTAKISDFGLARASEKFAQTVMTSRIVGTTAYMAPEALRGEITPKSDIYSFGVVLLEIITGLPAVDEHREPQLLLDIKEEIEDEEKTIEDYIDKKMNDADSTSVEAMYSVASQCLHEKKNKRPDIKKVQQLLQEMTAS
Outline: as §1

LTK = LTK (Homo sapiens, UniProt P29376)
LTK, sequence (P29376 whole entry): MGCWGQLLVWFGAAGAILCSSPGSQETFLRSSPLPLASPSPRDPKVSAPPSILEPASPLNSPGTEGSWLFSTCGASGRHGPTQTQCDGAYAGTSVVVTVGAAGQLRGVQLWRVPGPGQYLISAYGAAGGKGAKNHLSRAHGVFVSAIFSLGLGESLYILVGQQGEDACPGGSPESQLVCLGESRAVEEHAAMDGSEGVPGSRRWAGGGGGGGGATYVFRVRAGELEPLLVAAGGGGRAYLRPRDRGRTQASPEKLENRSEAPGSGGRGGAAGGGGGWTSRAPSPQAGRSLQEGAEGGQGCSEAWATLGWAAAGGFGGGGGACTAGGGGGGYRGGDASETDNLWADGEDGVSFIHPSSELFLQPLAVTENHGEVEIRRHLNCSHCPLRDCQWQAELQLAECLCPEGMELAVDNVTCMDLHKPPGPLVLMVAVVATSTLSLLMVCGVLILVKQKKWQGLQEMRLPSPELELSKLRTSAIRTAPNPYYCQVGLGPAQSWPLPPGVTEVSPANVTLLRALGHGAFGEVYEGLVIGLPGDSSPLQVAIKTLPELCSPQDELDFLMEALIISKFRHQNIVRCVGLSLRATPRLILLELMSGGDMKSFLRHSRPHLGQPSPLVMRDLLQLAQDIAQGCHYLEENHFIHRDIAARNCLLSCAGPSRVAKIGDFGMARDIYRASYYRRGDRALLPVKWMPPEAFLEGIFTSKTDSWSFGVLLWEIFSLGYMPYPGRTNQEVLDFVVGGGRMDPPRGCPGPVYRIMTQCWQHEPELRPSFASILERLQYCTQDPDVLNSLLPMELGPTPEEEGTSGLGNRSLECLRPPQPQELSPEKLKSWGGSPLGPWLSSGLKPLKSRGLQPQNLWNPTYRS
Outline: as §1

MAP4K2 = MAP4K2 (Homo sapiens, UniProt Q12851)
Outline: as §1

MARK3 = MARK3 (Homo sapiens, UniProt P27448)
Outline: as §1

MAST1 = MAST1 (Homo sapiens, UniProt Q9Y2H9)
Outline: as §1

MEK2 = biological target: T3, MEK2 (Homo sapiens, UniProt P36507)
T3 construct: gene MAP2K2
Outline: as §1

MST1 = biological target: T4, MST1 (Homo sapiens, UniProt Q13043)
T4 construct: gene STK4
Outline: as §1

NEK1 = NEK1 (Homo sapiens, UniProt Q96PY6)
Outline: as §1

PKN2 = PKN2 (Homo sapiens, UniProt Q16513)
Outline: as §1

SGK3 = SGK3 (Homo sapiens, UniProt Q96BR1)
Outline: as §1

SIK2 = SIK2 (Homo sapiens, UniProt Q9H0K1)
SIK2, sequence (Q9H0K1 whole entry): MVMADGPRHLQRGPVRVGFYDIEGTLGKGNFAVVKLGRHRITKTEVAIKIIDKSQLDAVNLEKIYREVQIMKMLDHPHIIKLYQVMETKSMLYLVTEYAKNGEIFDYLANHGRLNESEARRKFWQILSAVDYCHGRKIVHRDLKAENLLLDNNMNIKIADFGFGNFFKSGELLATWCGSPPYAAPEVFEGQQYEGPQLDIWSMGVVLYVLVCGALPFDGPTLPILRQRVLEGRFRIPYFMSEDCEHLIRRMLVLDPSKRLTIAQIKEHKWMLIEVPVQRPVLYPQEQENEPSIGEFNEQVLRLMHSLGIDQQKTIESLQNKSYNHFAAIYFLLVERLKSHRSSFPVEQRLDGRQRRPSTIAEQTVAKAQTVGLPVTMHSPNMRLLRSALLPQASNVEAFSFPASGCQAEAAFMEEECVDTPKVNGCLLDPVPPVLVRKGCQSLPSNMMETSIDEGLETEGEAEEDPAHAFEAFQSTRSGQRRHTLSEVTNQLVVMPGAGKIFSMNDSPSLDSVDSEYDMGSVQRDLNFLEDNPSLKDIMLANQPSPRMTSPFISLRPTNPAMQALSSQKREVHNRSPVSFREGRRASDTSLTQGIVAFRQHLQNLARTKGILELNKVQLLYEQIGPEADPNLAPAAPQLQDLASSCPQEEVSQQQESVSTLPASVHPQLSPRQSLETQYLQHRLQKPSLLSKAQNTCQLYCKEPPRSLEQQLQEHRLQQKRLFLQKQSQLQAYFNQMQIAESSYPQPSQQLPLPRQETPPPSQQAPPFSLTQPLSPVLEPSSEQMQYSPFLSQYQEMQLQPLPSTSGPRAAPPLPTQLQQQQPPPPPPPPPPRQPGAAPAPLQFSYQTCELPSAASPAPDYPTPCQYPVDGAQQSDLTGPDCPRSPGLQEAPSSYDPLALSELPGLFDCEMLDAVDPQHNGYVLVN
Outline: as §1

SNRK = SNRK (Homo sapiens, UniProt Q9NRH2)
Outline: as §1

TBK1 = TBK1 (Homo sapiens, UniProt Q9UHD2)
TBK1, sequence (Q9UHD2 whole entry): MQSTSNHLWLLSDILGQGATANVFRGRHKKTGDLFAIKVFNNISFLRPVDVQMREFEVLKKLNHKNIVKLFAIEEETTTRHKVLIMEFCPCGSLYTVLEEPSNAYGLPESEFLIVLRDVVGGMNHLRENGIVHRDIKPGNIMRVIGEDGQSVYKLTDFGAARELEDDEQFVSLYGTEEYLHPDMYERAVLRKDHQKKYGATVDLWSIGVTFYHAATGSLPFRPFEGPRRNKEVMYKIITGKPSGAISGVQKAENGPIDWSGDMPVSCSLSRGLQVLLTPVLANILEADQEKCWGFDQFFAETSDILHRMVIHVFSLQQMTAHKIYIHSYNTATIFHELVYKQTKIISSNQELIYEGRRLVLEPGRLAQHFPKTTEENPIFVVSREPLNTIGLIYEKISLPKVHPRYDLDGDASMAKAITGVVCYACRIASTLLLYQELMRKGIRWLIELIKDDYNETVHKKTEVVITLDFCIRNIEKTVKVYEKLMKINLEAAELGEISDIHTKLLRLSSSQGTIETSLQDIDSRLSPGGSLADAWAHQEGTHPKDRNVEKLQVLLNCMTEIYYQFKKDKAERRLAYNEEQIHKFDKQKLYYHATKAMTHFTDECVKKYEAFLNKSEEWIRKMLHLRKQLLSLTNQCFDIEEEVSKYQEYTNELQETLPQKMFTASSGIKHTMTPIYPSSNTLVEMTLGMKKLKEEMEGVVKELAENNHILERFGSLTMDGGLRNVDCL
Outline: as §1

BRAF, sequence (P15056 whole entry): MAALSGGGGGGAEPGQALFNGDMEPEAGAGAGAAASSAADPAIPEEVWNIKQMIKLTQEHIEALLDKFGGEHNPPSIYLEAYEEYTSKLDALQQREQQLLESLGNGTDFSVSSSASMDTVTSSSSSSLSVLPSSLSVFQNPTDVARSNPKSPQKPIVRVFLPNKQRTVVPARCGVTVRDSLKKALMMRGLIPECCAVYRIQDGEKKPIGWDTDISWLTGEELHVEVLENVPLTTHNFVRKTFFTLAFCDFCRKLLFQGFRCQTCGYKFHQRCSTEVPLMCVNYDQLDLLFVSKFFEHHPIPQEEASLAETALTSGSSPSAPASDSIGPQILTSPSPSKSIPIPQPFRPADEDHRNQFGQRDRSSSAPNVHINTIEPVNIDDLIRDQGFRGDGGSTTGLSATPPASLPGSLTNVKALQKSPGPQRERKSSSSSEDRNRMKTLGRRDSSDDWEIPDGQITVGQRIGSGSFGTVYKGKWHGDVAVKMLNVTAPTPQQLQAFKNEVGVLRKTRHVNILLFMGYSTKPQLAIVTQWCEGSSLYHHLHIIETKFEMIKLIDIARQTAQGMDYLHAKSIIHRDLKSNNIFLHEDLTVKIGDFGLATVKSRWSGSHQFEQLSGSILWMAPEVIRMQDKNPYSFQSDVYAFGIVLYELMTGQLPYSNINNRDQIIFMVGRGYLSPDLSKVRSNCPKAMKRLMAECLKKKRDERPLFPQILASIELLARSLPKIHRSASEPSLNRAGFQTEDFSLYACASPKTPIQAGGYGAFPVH

C=C(C)[C@H]1CC=C(C)C(=O)C1 [S-carvone]
remaining binding at 100 µM (BRAF): 83% | remaining binding at 100 µM (BTK): 70% | remaining binding at 100 µM (CDK8): 84% | remaining binding at 100 µM (CSNK1A1L): 85% | remaining binding at 100 µM (DCAMKL1): 85% | remaining binding at 100 µM (ERK8): 91% | remaining binding at 100 µM (GRK1): 74% | remaining binding at 100 µM (GRK2): 58% | remaining binding at 100 µM (HIPK2): 76% | remaining binding at 100 µM (IRAK4): 68% | remaining binding at 100 µM (LTK): 79% | remaining binding at 100 µM (MAP4K2): 94% | remaining binding at 100 µM (MARK3): 68% | remaining binding at 100 µM (MAST1): 75% | remaining binding at 100 µM (MEK2): 86% | remaining binding at 100 µM (MST1): 81% | remaining binding at 100 µM (NEK1): 94% | remaining binding at 100 µM (PKN2): 83% | remaining binding at 100 µM (SGK3): 81% | remaining binding at 100 µM (SIK2): 76% | remaining binding at 100 µM (SNRK): 75% | remaining binding at 100 µM (TBK1): 64%
